The results in this text go back to patent EP0767778B1, “1-PHENOXY-3-N-ALKYLAMINOPROPAN-2-OL HALOGEN DERIVATIVES USEFUL AS MYOCARDIAL beta [sequence] RECEPTOR MARKERS AND AS beta-BLOCKING AGENTS” (CIS BIO INTERNATIONAL, priority 1994, dated 1996).

Series [1] is described as follows: octanol-water partition coefficient at room temperature. In kind it is physicochemical. The conditions noted are these: pH 7.
Series [2] in a line: biodistribution study in the mouse (Example 22). Type of series: in vivo, souris. The conditions noted are these: souris swiss femelles, injection intraveineuse. How it is done:
L'étude de la biodistribution des radioligands chez la souris, permet d'apprécier l'intensité relative de la fixation cardiaque de la molécule et son évolution dans le temps.
Après marquage à l'iode 123 et purification par CLHP 20µCi environ de produit sont mis en solution dans 5 ml d'une solution : éthanol 20%-sérum physiologique 80%. Après injection intraveineuse de 25 µl de cette solution dans la queue de souris vigiles (souris swiss femelles de 20 à 25 g), celles-ci (5 à chaque fois) sont sacrifiées à différents temps après l'injection. On mesure pour chaque souris les activités cardiaques, hépatique, rénale et pulmonaire. Les résultats sont exprimés en pourcentage de la dose injectée par gramme d'organe.
Le CGP12177 étant la référence, un lot de souris a été étudié après injection de CGP 12177 marqué au tritium.

For series [3], the system named is récepteurs β adrénergiques. In words: isolated perfused rat heart (Langendorff), antagonism of isoprenaline on dP/dt max. As to conditions: for DP/dt max: n=6. The procedure: Dans cet exemple, on teste la propriété pharmacologique antagoniste du composé 6 vis-à-vis des récepteurs β adrénergiques.
L'expérience est conduite sur coeur de rat isolé et perfusé selon la technique de Langendorff.
Après une préperfusion de 25 minutes avec une solution de Krebs-Henseleit, le coeur est perfusé avec de l'isoprénaline à la concentration de 10^-8M pendant 10 minutes; puis avec une solution d'isoprénaline à 10^-8M associée à la molécule à tester à la concentration de 10^-6M.
Si la molécule à tester diminue la dP/dt max en présence d'isoprénaline, on pourra affirmer que cette molécule se comporte comme un antagoniste de l'isoprénaline vis-à-vis des récepteurs β adrénergiques.

The mark [4] stands for this setting: Isoprénaline + molécule (10^e+8 min), isoprénaline 10^-8M, test molecule 10^-6M.

Regarding “1-[4-(2-iodoéthylènamido)phénoxy]-3-isopropylaminopropan-2-ol [composé 15]”, the “Coefficient de partage octanol-eau à pH 7” value in series [1] is 2,91. Besides, the “Biodistribution Foie” value in series [2] (2') is on record as 6 ± 0,75 pourcentage de la dose injectée par gramme d'organe; in series [2] (5'), 3,6 ± 0,4 pourcentage de la dose injectée par gramme d'organe; in series [2] (10'), 2,6 ± 0,2 pourcentage de la dose injectée par gramme d'organe; in series [2] (15") it was 4,8 ± 0,2 pourcentage de la dose injectée par gramme d'organe; in series [2] (15'), 2,6 ± 0,2 pourcentage de la dose injectée par gramme d'organe; in series [2] (30'), 2,1 ± 0,1 pourcentage de la dose injectée par gramme d'organe. The “Biodistribution Rein” value is given as 20,9 ± 2,5 pourcentage de la dose injectée par gramme d'organe in series [2] (2'); 13,3 ± 0,6 pourcentage de la dose injectée par gramme d'organe in series [2] (5'); 7,2 ± 0,4 pourcentage de la dose injectée par gramme d'organe in series [2] (10'); 17,1 ± 1,2 pourcentage de la dose injectée par gramme d'organe in series [2] (15"); 6,3 ± 1 pourcentage de la dose injectée par gramme d'organe in series [2] (15'); 4,8 ± 0,6 pourcentage de la dose injectée par gramme d'organe in series [2] (30'). Besides, the “Biodistribution Coeur” value in series [2] (15") is listed as 16,2 ± 2,1 pourcentage de la dose injectée par gramme d'organe; in series [2] (15'), 3,2 ± 0,2 pourcentage de la dose injectée par gramme d'organe; in series [2] (30'), 2,2 ± 0,15 pourcentage de la dose injectée par gramme d'organe; in series [2] (2 min.) it was 14,4 ± 0,9 pourcentage de la dose injectée par gramme d'organe; in series [2] (5 min.) it was 8,4 ± 0,3 pourcentage de la dose injectée par gramme d'organe; in series [2] (10 min.), 3,6 ± 0,7 pourcentage de la dose injectée par gramme d'organe. For the same compound, the “Biodistribution Poumon” value in series [2] (15") was 55 ± 12 pourcentage de la dose injectée par gramme d'organe; in series [2] (15'), 11,2 ± 2,2 pourcentage de la dose injectée par gramme d'organe; in series [2] (30'), 8,4 ± 0,8 pourcentage de la dose injectée par gramme d'organe; in series [2] (2 min.) it was 34 ± 6 pourcentage de la dose injectée par gramme d'organe; in series [2] (5 min.), 25 ± 6 pourcentage de la dose injectée par gramme d'organe; in series [2] (10 min.), 13,2 ± 3,1 pourcentage de la dose injectée par gramme d'organe.
With “1-{4-[2-(2-iodoéthoxy) éthoxy]phénoxy}-3-isopropyl-aminopropan-2-ol [composé 16]”, in series [1], the “Coefficient de partage octanol-eau à pH 7” value is 6,7. Besides, the “Biodistribution Foie” value in series [2] (2') is recorded as 3,6 ± 0,5 pourcentage de la dose injectée par gramme d'organe; in series [2] (5'), 7,2 ± 1,6 pourcentage de la dose injectée par gramme d'organe; in series [2] (10'), 7,8 ± 1,6 pourcentage de la dose injectée par gramme d'organe; in series [2] (15") it was 1,5 ± 0,8 pourcentage de la dose injectée par gramme d'organe; in series [2] (15'), 7,9 ± 0,5 pourcentage de la dose injectée par gramme d'organe. Also, the “Biodistribution Rein” value in series [2] (2') was 16,4 ± 3,6 pourcentage de la dose injectée par gramme d'organe; in series [2] (5'), 19,5 ± 5 pourcentage de la dose injectée par gramme d'organe; in series [2] (10') it was 15,4 ± 2 pourcentage de la dose injectée par gramme d'organe; in series [2] (15"), 4 ± 2,6 pourcentage de la dose injectée par gramme d'organe; in series [2] (15') it was 14 ± 2,6 pourcentage de la dose injectée par gramme d'organe. Besides, the “Biodistribution Coeur” value is on record as 20,4 ± 3,8 pourcentage de la dose injectée par gramme d'organe in series [2] (15"); 3,6 ± 0,4 pourcentage de la dose injectée par gramme d'organe in series [2] (15'); 13 ± 1,3 pourcentage de la dose injectée par gramme d'organe in series [2] (2 min.); 7 ± 0,7 pourcentage de la dose injectée par gramme d'organe in series [2] (5 min.); 4,1 ± 0,4 pourcentage de la dose injectée par gramme d'organe in series [2] (10 min.). The “Biodistribution Poumon” value in series [2] (15") was 112 ± 37 pourcentage de la dose injectée par gramme d'organe; in series [2] (15'), 29,6 ± 4 pourcentage de la dose injectée par gramme d'organe; in series [2] (2 min.), 73,3 ± 10 pourcentage de la dose injectée par gramme d'organe; in series [2] (5 min.), 52,7 ± 4 pourcentage de la dose injectée par gramme d'organe; in series [2] (10 min.), 38,9 ± 5,3 pourcentage de la dose injectée par gramme d'organe.
As for `CC(C)NCC(O)c1ccc(O)c(O)c1` (stereo not drawn) [Isoprenaline], the DP/dt max in series [3] (Isoprénaline (10^e min), isoprénaline 10^-8M alone) was 2535±1233 mmHg/min; in series [3] (setting [4]), 2398±1088 mmHg/min. Also, the “augmentation de la dP/dt max par rapport à la préperfusion” value in series [3] (isoprénaline seule 10^-8M) was found to be 254%.
Turning to `CC(C)NCC(O)COc1cccc2ccccc12` (stereo not drawn) [propranolol], the DP/dt max in series [3] (setting [4]) is 814±240 mmHg/min. Further, the “effect on the action of isoprénaline on dP/dt max” value in series [3] (isoprénaline 10^-8M + molecule 10^-6M) was “revient à la valeur basale”.
